# Where no end group is shown, it is not given here.
# Legend:
# human TRPV6b = target: T1, human TRPV6b (Homo sapiens, UniProt Q9H1D0); experiment: Whole-cell patch clamp of calcium store operated current (ISOC) through TRPV6 in transfected LnCaP cells; assay type: cell-based
# T1 construct: expressed in transfected cells; host or cells: LnCaP (ATCC CRL-1740), human lymph node prostate cancer cells
# T1 sequence (Q9H1D0 41-765 limits assumed): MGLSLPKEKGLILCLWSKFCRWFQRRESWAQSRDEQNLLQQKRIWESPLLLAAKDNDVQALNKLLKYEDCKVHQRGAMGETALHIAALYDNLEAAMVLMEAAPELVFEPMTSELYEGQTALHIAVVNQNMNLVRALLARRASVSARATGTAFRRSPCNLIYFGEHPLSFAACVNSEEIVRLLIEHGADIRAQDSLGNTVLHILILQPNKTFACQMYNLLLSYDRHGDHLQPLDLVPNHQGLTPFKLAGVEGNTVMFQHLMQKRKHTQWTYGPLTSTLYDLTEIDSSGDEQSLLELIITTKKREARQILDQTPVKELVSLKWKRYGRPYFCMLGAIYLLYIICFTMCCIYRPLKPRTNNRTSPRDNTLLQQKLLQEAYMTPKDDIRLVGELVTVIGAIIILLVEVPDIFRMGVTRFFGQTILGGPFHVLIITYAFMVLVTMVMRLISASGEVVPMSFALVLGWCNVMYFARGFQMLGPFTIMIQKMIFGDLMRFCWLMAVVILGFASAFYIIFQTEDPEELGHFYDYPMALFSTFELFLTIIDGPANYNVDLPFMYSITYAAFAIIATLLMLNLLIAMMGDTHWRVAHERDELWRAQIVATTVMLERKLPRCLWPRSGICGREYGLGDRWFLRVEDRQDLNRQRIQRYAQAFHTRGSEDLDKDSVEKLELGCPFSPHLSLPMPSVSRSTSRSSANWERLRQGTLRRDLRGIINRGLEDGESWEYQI
# Description: An expression vector (pCAGS-IRES-hTRPV6b) (Bodding et al. 2003) containing the nucleotide code for human TRPV6b was transfected into and expressed by human lymph node prostate cancer (LnCaP, ATCC CRL-1740). Patch clamping with whole-cell current acquisition was used to measure the calcium current through this channel. Cells were treated and calcium store operated current (ISOC) was measured with either SorC13 (n=90) or SorC27 (n=30) in a closed-circuit perfusion for 3 min at each of cumulative concentrations of 0 (baseline), 100 nM, 500 nM 1 uM, 30 uM and 100 uM. Washout perfusion was done at 2 mL/min for 3 min. […] Further, both C-peptides are very strong inhibitors of calcium current through the TRPV6 channel with inhibition constants in the 100 nM range.
# [1] = Degradation rate in human plasma (HPLC); assay type: in vitro ADME
# Description: Rat plasma was obtained from blood taken from sacrificed rats (Sprague-Dawley) and placed into heparinized glass vials to prevent clotting. Whole blood was centrifuged at 8000×g for 5 minutes to spin down the cells leaving the plasma as supernatant. Human whole blood samples from healthy humans were taken in lithium-heparinized vacuum tubes. The samples were placed into 2.0 mL microcentrifuge tubes and centrifuged at 8000×g for 5 min. The plasma was carefully separated from red blood cells and used immediately.
# Determination of degradation rate of the C-peptides was done by measuring, with the HPLC protocol, the amount of either SorC13 or SorC27 in dosed plasma samples, after time. Sample tubes (500 uL) containing 2 uL of 2 mM Pefabloc were previously prepared for sample delivery SorC13 (1.0 mg) or SorC27 (2.0 mg) were dissolved in 1.0 mL of fresh plasma (37° C.) and placed in an incubating water bath at 37° C. A sample (100 uL) was taken immediately and quenched in sample tubes containing 2 uL of 2 mM Pefabloc, mixed vigorously and immediately frozen at −80° C. This initial sample represented time zero for the run. At successive time intervals of 5 minutes, 100 uL samples were withdrawn, quenched in Pefabloc, mixed, and frozen at −80° C. until analysis.
# The rat plasma degradation rate was determined for the plasma from three different rats, while the rate of degradation in human plasma used six separate plasma samples. The data used were the means (±SEM) and were fitted to a simple one-phase exponential decay model to determine the half-life of the two peptides. This also allowed the calculation of a static degradation rate. FIG. 11 is illustrative of the rate at which SorC27 was degraded in human plasma.
# Solubility (aqueous) = details: aqueous
# [2] = system: T47D breast cancer xenografts; experiment: T-47D breast cancer xenograft, SorC13 with Paclitaxel (Example 27); assay type: in vivo, NOD/SCID mice
# Description: Tumor volumes (V) were calculated by caliper measurement using standard measurements of the width (W), length (L) and thickness (T) of tumors. Animals were randomized into treatment groups so that the median tumor volumes of each group were similar at the start of dosing. Percentage ΔT/ΔC values, as a measure of efficacy, were determined where ΔC refers to change in volume of control or untreated tumor, and ΔT refers to change in volume of treated tumor.
# Animals were intraperitoneally (i.p.) injected with the vehicular control, or the low, medium or high doses of CAT or CAT and SorC13. Mice received low medium or high doses of CAT or CAT and SorC13 by i.p. injection every day for 12 days or CAT injections as set out in Table 10. Paclitaxel was injected first, followed by carboplatin 30 minutes later and then SorC13. The tumor volume and body weights were measured every day. As well, general health of the animals was monitored every day.
# The human […] breast cancer cell line T-47D (ATCC #HTB-133), was cultured in growth media prepared with ATCC complete growth medium. The base medium for the T-47D cell line is ATCC-formulated RPMI-1640 Medium. The complete growth medium is supplemented with 0.2 Units/ml bovine insulin and fetal bovine serum to a final concentration of 10% (v/v). Cells were cultured at 37° C. in an atmosphere of 95% air and 5% carbon dioxide with sub-culturing done according to ATCC guidelines.
# The cell preparation, formulation, implantation, measurement and treatment procedures were otherwise as described in Example 26 and Table 10 but with Paclitaxel at low (6 mg/kg), medium (10 mg/kg) and high (16 mg/kg) doses.
Sequence,IC50 (human TRPV6b),Kd (human TRPV6b),binding to plasma proteins ([1]; human plasma),"half-life ([1]; human, plasma, 37° C.)",solubility (Solubility (aqueous)),"% ΔT/ΔC (tumor volume normalized to control) ([2]; Day 6, SorC13 300 mg/kg)","% ΔT/ΔC (tumor volume normalized to control) ([2]; Day 12, SorC13 300 mg/kg)","% ΔT/ΔC (tumor volume normalized to control) ([2]; Day 18 (rest period), SorC13 300 mg/kg)","% ΔT/ΔC (tumor volume normalized to control) ([2]; Day 24 (rest period), SorC13 300 mg/kg)","Mean tumour volume ([2]; after 12-day rest post-treatment, SorC13 300 mg/kg)","Mean tumor volume ([2]; day 12 of treatment, SorC13 300 mg/kg i.p. daily)"
EGKLSSNDTEGGLCKEFLHPSKVDLPR [SorC27],140 nM,140 nM,doesn't bind to,20 min,> 200 mg/mL,,,,,,
"KEFLHPSKVDLPR [SorC13, KEFLHPSKVDLPR]",,,,,,66.0%,1.0%,54.5%,48.7%,55.76 mm^3,43.61 mm^3
